IC50 data for 40 compounds are collected here from US7973047B2, “Beta-Secretase modulators and methods of use” (Amgen Inc., priority 2010, dated 2011).

pIC50: −log10 of the molar value.

The test system of this assay is Aβ40 in conditioned medium of cells stably expressing Amyloid Precursor Protein (APP). Put plainly: BACE cell-based assay: Aβ40 in conditioned medium by sandwich ELISA. Conditions: cell based assay data of Table 4; unit inferred; read-out: Cell Assay. The procedure:
The cell-based assay measures inhibition or reduction of Aβ40 in conditioned medium of test compound treated cells expressing amyloid precursor protein.
Cells stably expressing Amyloid Precursor Protein (APP) were plated at a density of 40K cells/well in 96 well plates (Costar). The cells were cultivated for 24 hours at 37° C. and 5% CO2 in DMEM supplemented with 10% FBS. The test compounds were then added to cells in 10-point dose response concentrations with the starting concentration being either 100 μM or 10 μM. The compounds were diluted from stock solutions in DMSO and the final DMSO concentration of the test compounds on cells was 0.1%. After 24 h of incubation with the test compounds the supernatant conditioned media was collected and the Aβ40 levels were determined using a sandwich ELISA. The ICso of the compound was calculated from the percent of control or percent inhibition of Aβ40 as a function of the concentration of the test compound.
The sandwich ELISA to detect Aβ40 was performed in 96 well microtiter plates, which were pre-treated with goat anti-rabbit IgG (Pierce). The capture and detecting antibody pair that were used to detect Aβ40 from cell supernatants were affinity purified pAb40 (Biosource) and biotinylated 6E10 (Signet Labs Inc.), respectively. The optimal concentration for the pAb40 antibody was 3 μg/ml in Superblock/TBS (Pierce) that was supplemented with 0.05% Tween 20 (Sigma).
Cellular supernatants were incubated with the capture antibody for 3 h at 4° C., followed by 3 wash steps in TBS-tween (0.05%). The detecting antibody incubation was for 2 h at 4° C., again followed by the wash steps as described previously. The final readout of the ELISA is Time-Resolved Fluorescence (counts per minute) using Delfia reagents Streptavidin-Europium and Enhancement solutions (Perkin Elmer) and the Victor 2 multilabel counter (Perkin Elmer).
With `CC(=O)N[C@@H](Cc1ccc(F)cc1)[C@H](O)CN[C@@H]1CC2(CCCC2)C(=O)c2ccc(CC(C)(C)C)cc21` [compound 564, N-((1S,2R)-3-(((4′R)-6′-(2,2-dimethylpropyl)-1′-oxo-3′,4′-dihydro-1′H-spiro[cyclopentane-1,2′-naphthalen]-4′-yl)amino)-1-((4-fluorophenyl)methyl)-2-hydroxypropyl)acetamide], the pIC50 is 6.24.

On to `CCc1cnc2c(c1)[C@@H](NC[C@@H](O)[C@H](Cc1cccc(F)c1)NC(C)=O)CC1(CCC1)O2` [compound 566], for which the pIC50 was 7.54.

In the case of `CC(=O)N[C@@H](Cc1cc(F)cc(Cl)c1)[C@H](O)CN[C@H]1CC2(CCC2)Oc2ncc(CC(C)(C)C)cc21` [compound 567], the pIC50 was 8.48.

`CC(=O)N[C@@H](Cc1ccc(F)cc1)[C@H](O)CN[C@H]1CC2(CCC2)Oc2ncc(CC(C)(C)C)cc21` [compound 568]: the pIC50 is 8.09.

As for `CC(=O)N[C@@H](Cc1cccc(F)c1)[C@H](O)CN[C@H]1CC2(CCC2)Oc2cnc(CC(C)(C)C)cc21` [compound 569], the pIC50 is 8.28.

As for `CC(=O)N[C@@H](Cc1ccc(F)cc1)[C@H](O)CN[C@H]1CC2(CCC2)Oc2cnc(CC(C)(C)C)cc21` [compound 570], the pIC50 was 7.66.

As to `CC(=O)N[C@@H](Cc1ccc(F)cc1)[C@H](O)CN[C@H]1CC2(CCC2)Oc2ncc(CC(C)(C)F)cc21` [compound 571], the pIC50 was 7.09.

On to `CC(=O)N[C@@H](Cc1ccc(F)cc1)[C@H](O)CN[C@H]1CC(C)(C)Oc2ncc(CC(C)(C)C)cc21` [compound 572], for which the pIC50 was 7.86.

As to `CC(=O)N[C@@H](Cc1cc(F)cc(F)c1)[C@H](O)CN[C@H]1CC(C)(C)Oc2ncc(CC(C)(C)C)cc21` [compound 573], the pIC50 was 8.51.

As for `CC(=O)N[C@@H](Cc1ccc(F)cc1)[C@@H](O)CN[C@H]1CC2(CCC2)Oc2ncc(CC(C)(C)F)cc21` [compound 574], the pIC50 was 6.96.

On to `CC(=O)N[C@@H](Cc1ccc(F)c(C)c1)[C@H](O)CN[C@H]1CC2(CCC2)Oc2ncc(CC(C)(C)C)cc21` [compound 575], for which the pIC50 was 8.33.

In the case of `CC(=O)N[C@@H](Cc1ccc(C)c(F)c1)[C@H](O)CN[C@H]1CC2(CCC2)Oc2ncc(CC(C)(C)C)cc21` [compound 576], the pIC50 is 8.67.

Regarding `COC(=O)N[C@@H](Cc1ccc(F)cc1)[C@H](O)CN[C@H]1CC2(CCC2)Oc2ncc(CC(C)(C)C)cc21` [compound 577], the pIC50 is 7.22.

On to `CC(=O)N[C@@H](Cc1ccc(F)c(C)c1)[C@H](O)CN[C@H]1CC2(CCC2)Oc2ncc(CC(C)(C)F)cc21` [compound 578], for which the pIC50 is 7.55.

On to `COc1cccc(C[C@H](NC(C)=O)[C@H](O)CN[C@H]2CC3(CCC3)Oc3ncc(CC(C)(C)C)cc32)c1` [compound 579], for which the pIC50 is 8.34.

Take `CC(=O)N[C@@H](Cc1ccc(Cl)cc1)[C@H](O)CN[C@H]1CC2(CC2)Oc2ncc(CC(C)(C)C)cc21` [compound 580]: the pIC50 was 6.92.

As for `COCC(C)(C)Cc1cnc2c(c1)[C@@H](NC[C@@H](O)[C@H](Cc1ccc(F)cc1)NC(C)=O)CC1(CCC1)O2` [compound 581], the pIC50 is 6.86.

On to `CC(=O)N[C@@H](Cc1ccccc1)[C@H](O)CN[C@H]1CC2(CCC2)Oc2c1cc(CC(C)(C)C)nc2N(C)C` [compound 582], for which the pIC50 is 7.50.

With `CC(=O)N[C@@H](Cc1ccc(F)cc1)[C@H](O)CN[C@H]1CC2(CCC2)Oc2c1cc(CC(C)(C)C)nc2Cl` [compound 583], the pIC50 was 6.95.

`CCNc1nc(CC(C)(C)C)cc2c1OC1(CCC1)C[C@@H]2NC[C@@H](O)[C@H](Cc1ccc(F)cc1)NC(C)=O` [compound 584]: the pIC50 is 8.28.

Take `CC(=O)N[C@@H](Cc1ccc(F)cc1)[C@H](O)CN[C@H]1CC2(CCC2)Oc2c1cc(CC(C)(C)C)nc2NC(C)C` [compound 585]: the pIC50 is 7.65.

Consider `CC(=O)N[C@@H](Cc1ccc(F)cc1)[C@H](O)CN[C@H]1CC2(CCC2)Oc2c1cc(CC(C)(C)C)nc2NC1CC1` [compound 586], for which the pIC50 was 7.85.

With `CC(=O)N[C@@H](Cc1ccc(F)cc1)[C@H](O)CN[C@H]1CC2(CCC2)Oc2c1cc(CC(C)(C)C)nc2NC1CCOCC1` [compound 587], the pIC50 is 8.07.

Turning to `CC(=O)N[C@@H](Cc1ccc(F)cc1)[C@H](O)CN[C@H]1CC2(CCC2)Oc2c1cc(CC(C)(C)C)nc2N(C)C` [compound 588], the pIC50 is 7.28.

In the case of `CC(=O)N[C@@H](Cc1ccc(F)cc1)[C@H](O)CN[C@H]1CC2(CCC2)Oc2c1cc(CC(C)(C)C)nc2NC(C)(C)C` [compound 589], the pIC50 is 6.21.

For the compound `CNc1nc(CC(C)(C)C)cc2c1OC1(CCC1)C[C@@H]2NC[C@@H](O)[C@H](Cc1cccc(F)c1)NC(C)=O` [compound 590], the pIC50 is 8.85.

Consider `CCNc1nc(CC(C)(C)C)cc2c1OC1(CCC1)C[C@@H]2NC[C@@H](O)[C@H](Cc1cccc(F)c1)NC(C)=O` [compound 591], for which the pIC50 is 8.53.

For `CC(=O)N[C@@H](Cc1cccc(F)c1)[C@H](O)CN[C@H]1CC2(CCC2)Oc2c1cc(CC(C)(C)C)nc2NC1CCOCC1` [compound 592], the pIC50 is 8.49.

For `CC(=O)N[C@@H](Cc1cccc(F)c1)[C@H](O)CN[C@H]1CC2(CCC2)Oc2c1cc(CC(C)(C)C)nc2N(C)C` [compound 593], the pIC50 is 7.63.

As to `CC(=O)N[C@@H](Cc1cccc(F)c1)[C@H](O)CN[C@H]1CC2(CCC2)Oc2c1cc(CC(C)(C)C)[nH]c2=O` [compound 594], the pIC50 was 7.63.

For `CC(=O)N[C@@H](Cc1cc(F)cc(F)c1)[C@H](O)CN[C@H]1CC2(CCC2)Oc2c1cc(CC(C)(C)C)nc2N(C)C` [compound 598], the pIC50 was 7.57.

On to `CC(=O)N[C@@H](Cc1ccc(N(C)C)cc1)[C@H](O)CN[C@H]1CC2(CCC2)Oc2c1cc(CC(C)(C)C)nc2N(C)C` [compound 599], for which the pIC50 was 6.78.

As to `CC(=O)N[C@@H](Cc1ccc(Cl)cc1)[C@H](O)CN[C@H]1CC2(CCC2)Oc2c1cc(CC(C)(C)C)nc2N(C)C` [compound 600], the pIC50 was 6.20.

With `CC(=O)N[C@@H](Cc1cccc(F)c1F)[C@H](O)CN[C@H]1CC2(CCC2)Oc2c1cc(CC(C)(C)C)nc2N(C)C` [compound 601], the pIC50 is 6.64.

Regarding `CC(=O)N[C@@H](Cc1cccc(F)c1)[C@H](O)CN[C@H]1CC2(CCC2)Oc2c1cc(CC(C)(C)C)nc2NC1CC1` [compound 602], the pIC50 is 8.54.

Regarding `CC(=O)N[C@@H](Cc1cccc(F)c1)[C@H](O)CN[C@H]1CC2(CCC2)Oc2c1cc(CC(C)(C)C)nc2NCCNC(=O)OC(C)(C)C` [compound 603], the pIC50 is 7.89.

On to `COC1CN(c2nc(CC(C)(C)C)cc3c2OC2(CCC2)C[C@@H]3NC[C@@H](O)[C@H](Cc2cccc(F)c2)NC(C)=O)C1` [compound 604], for which the pIC50 was 8.24.

As for `CC(=O)N[C@@H](Cc1cccc(F)c1)[C@H](O)CN[C@H]1CC2(CCC2)Oc2c1cc(CC(C)(C)C)nc2N` [compound 605], the pIC50 was 8.81.

For the compound `CC(=O)N[C@@H](Cc1cccc(F)c1)[C@H](O)CN[C@H]1CC2(CCC2)Oc2c1cc(CC(C)(C)C)nc2NCCN` [compound 606], the pIC50 was 8.35.

In the case of `CC(=O)N[C@@H](Cc1ccc(F)cc1)[C@H](O)CN[C@@H]1CC2(CCC2)Oc2c1cc(CC(C)(C)C)nc2OC(C)C` [compound 607], the pIC50 is 7.10.
